Laboratory results taken from patent publication US5300672A (priority 1992, dated 1994).
Where two headings read alike, the source gives them in different places.

Key:
[1] = tested on: Puccinia recondita (f. sp. tritici Races PKB and PLD); test: whole plant or invertebrate; type: in vivo; conditions: for pest or weed control at 100 ppm / pest or weed control at 200 ppm: Puccinia recondita, 240 h, read-out: % Control WLR; for % Control WLR: in vivo
Piricularia oryzae = test: whole plant or invertebrate; type: in vivo; conditions: for pest or weed control at 100 ppm: read-out: % Control RB, application rate 100 ppm; for pest or weed control at 200 ppm: read-out: % Control RB, application rate 200 ppm; for % Control RB: in vivo
Phytophthora infestans = test: whole plant or invertebrate; type: in vivo; conditions: for pest or weed control at 100 ppm / pest or weed control at 200 ppm / pest or weed control at 6 ppm: Phytophthora infestans, in Solanum lycopersicum, 96 h
[2] = tested on: Erysiphe graminis (f. sp. tritici); test: whole plant or invertebrate; type: in vivo; conditions: for pest or weed control at 100 ppm / pest or weed control at 12 ppm / pest or weed control at 200 ppm: Blumeria graminis, read-out: % Control WPM; for % Control WPM: in vivo
Pseudomonas fluorescens = test: Alternate Minimum Inhibitory Concentrations Test (Table 4), Ps.fl; type: cell-based; conditions: Table 4 alternate test, 250 ppm to 0.8 ppm in TSB, 72 hours, 30° C.; for MIC: Pseudomonas fluorescens, read-out: MIC Ps.fl
Method: The compounds of Examples 1-8, 12-26, 28-33, 36-37, 39-42, 44-109, 111-114, and 116-120 were subjected also to the following alternate biocidal activity test procedures with the results as indicated in Table 4.
The MIC test measures the viability of Pseudomonas fluorescens inoculum in TSB when exposed for 72 hours to varying concentrations of test compound.
A 125 μl aliquot of 10,000 ppm test compound in acetone was added to 4.88 ml of TSB to provide a 250 ppm solution. From this solution, 100 μL was transferred to the first row of two microtiter plate columns. Both replicates and five additional compounds were all serially diluted 1:1 to a final concentration of 0.8 ppm in TSB.
Inoculation was accomplished by diluting a 24 hr Ps fl culture, four mls per 36 mls of phosphate buffer solution. A Dynatech autoinoculator was used to transfer 1.5 μl of this cell suspension to the microtiter plates. The plates were incubated at 30° C. for 3 days before the lowest concentration at which no growth occurs was recorded in the database.

[3] = tested on: Pellicularia filamentosa (f. sp. sasiki); test: whole plant or invertebrate; type: in vivo; conditions: for pest or weed control at 100 ppm / pest or weed control at 200 ppm: 120 h, read-out: % Control RSB; for % Control RSB: in vivo
[4] = read-out: % Control TLB, application rate 200 ppm
[5] = read-out: % Control TLB, application rate 100 ppm
[6] = Pyricularia oryzae, read-out: % Control RB, application rate 25 ppm

Row | Compound | pest or weed control at 100 ppm [1] [%] | pest or weed control at 100 ppm (Piricularia oryzae; Pyricularia oryzae) [%] | pest or weed control at 100 ppm (Phytophthora infestans; read-out: % Control TLB) [%] | pest or weed control at 100 ppm [2] [%] | MIC (Pseudomonas fluorescens) [µg/mL] | pest or weed control at 100 ppm [3] [%] | also measured
1 | CCCCCCCCNC(=O)/C=C\SC/C=C/c1ccccc1 [Compound 13, N-octyl-cis-3-[(trans-3-phenylprop-2-ene)thio]acrylamide] | 0 | 0 | 80 | 0 | > 250 | 0 | –
2 | C=CC(=O)S/C=C\C(=O)NCCCCCCCC [Compound 71, N-octyl-cis-3-(propenoylthio)acrylamide] | – | – | – | – | > 250 | – | pest or weed control at 200 ppm [1]: 0%; pest or weed control at 200 ppm (Piricularia oryzae; Pyricularia oryzae): 0%; pest or weed control at 200 ppm (Phytophthora infestans; [4]): 100%; pest or weed control at 12 ppm [2]: 50%; pest or weed control at 200 ppm [3]: 0%
3 | CCCCCCCCNC(=O)C=CSC(CO)COc1ccc(OC)cc1 (stereo not drawn) [Compound 39, N-octyl-cis-3-[(1-hydroxy-3-(4-methoxyphenoxy)-2-propane)thio]acrylamide] | – | – | – | – | – | – | % Control WLR [1]: 0 % Control; % Control RB (Piricularia oryzae): 80 % Control; % Control TLB (Phytophthora infestans; application rate 100 ppm): 0 % Control; % Control WPM [2]: 0 % Control; MIC Ps.fl (Pseudomonas fluorescens): > 250 Ppm; % Control RSB [3]: 0 % Control
4 | CCCCCCCCNC(=O)/C=C\SC(=O)CCCCCCCCCCC#N [Compound 58, N-octyl-cis-3-[(11-cyanoundecanoyl)thio]acrylamide] | – | – | – | – | > 250 | – | pest or weed control at 200 ppm [1]: 0%; pest or weed control at 200 ppm (Phytophthora infestans; [4]): 0%; pest or weed control at 200 ppm [2]: 0%; pest or weed control at 200 ppm [3]: 50%
5 | CCCCCCCCNC(=O)/C=C\SC(=O)C(CC)CCCC (stereo not drawn) [Compound 27, N-octyl-cis-3-[(2-ethylhexanoyl)thio]acrylamide] | 0 | 0 | 90 | 0 | – | 0 | –
6 | CCCCCCCCNC(=O)/C=C\SC(=O)c1cccc(Br)c1 [Compound 36, N-octyl-cis-3-[(3-bromobenzoyl)thio]acrylamide] | 0 | – | – | 0 | > 250 | 0 | pest or weed control at 25 ppm (Piricularia oryzae; Pyricularia oryzae, read-out: % Control RB): 90%; pest or weed control at 100 ppm (Phytophthora infestans; [5]): 0%
7 | CCCCCCCCNC(=O)/C=C\SC(=O)c1cc2ccccc2s1 [Compound 19, N-octyl-cis-3-[(2-benzo(6)thiophene)carbonylthio]acrylamide] | 0 | 0 | 90 | 0 | > 250 | 0 | –
8 | CCCCCCCCNC(=O)/C=C\SCC(=O)OCC [Compound 34, N-octyl-cis-3-(ethoxycarbonylmethanethio)acrylamide] | 0 | 0 | 80 | 0 | – | 90 | –
9 | CCCCCCCCNC(=O)/C=C\SC(=O)c1cccc(OC)c1 [Compound 8, N-octyl-cis-3-[(3-methoxybenzoyl)thio]acrylamide] | 0 | 80 | 80 | 0 | > 250 | 0 | –
10 | CCCCCCCCNC(=O)/C=C\SC(=O)C(Cl)Cl [Compound 37, N-octyl-cis-3-(dichloroacetylthio)acrylamide] | 0 | – | – | 0 | > 250 | 0 | pest or weed control at 25 ppm (Piricularia oryzae; [6]): 80%; pest or weed control at 6 ppm (Phytophthora infestans; read-out: % Control TLB): 90%
11 | N-octyl-cis-3-[(3-cyanobenzoyl)thio]acrylamide [Compound 67] | – | – | – | – | – | – | % Control WLR [1]: 0 % Control; % Control RB (Piricularia oryzae): 0 % Control; % Control TLB (Phytophthora infestans; application rate 200 ppm): 95 % Control; % Control WPM [2]: 0 % Control; MIC Ps.fl (Pseudomonas fluorescens): > 250 Ppm; % Control RSB [3]: 0 % Control
12 | CCCCCCCCNC(=O)/C=C\SC(=O)N1CCCC1 [Compound 32, N-octyl-cis-3-[(1-pyrrolidine)carbonylthio]acrylamide] | 0 | 0 | 80 | 0 | > 250 | 0 | –
13 | C=CCC(=O)S/C=C\C(=O)NCCCCCCCC [Compound 63, N-octyl-cis-3-[(3-butenoyl)thio]acrylamide] | – | – | – | – | > 250 | – | pest or weed control at 200 ppm [1]: 0%; pest or weed control at 200 ppm (Piricularia oryzae; Pyricularia oryzae): 0%; pest or weed control at 200 ppm (Phytophthora infestans; [4]): 100%; pest or weed control at 200 ppm [2]: 0%; pest or weed control at 200 ppm [3]: 0%
14 | C=Cc1ccc(C(=O)S/C=C\C(=O)NCCCCCCCC)cc1 [Compound 64, N-octyl-cis-3-[(4-ethenylbenzoyl)thio]acrylamide] | – | – | – | – | > 250 | – | pest or weed control at 200 ppm [1]: 0%; pest or weed control at 200 ppm (Piricularia oryzae; Pyricularia oryzae): 0%; pest or weed control at 200 ppm (Phytophthora infestans; read-out: % Control TLB): 80%; pest or weed control at 200 ppm [2]: 0%; pest or weed control at 200 ppm [3]: 0%
15 | CCCCCCCCNC(=O)/C=C\SC(=O)CCOc1ccccc1 [Compound 79, N-octyl-cis-3-[(3-phenoxypropanoyl)thio]acrylamide] | – | – | – | – | > 250 | – | pest or weed control at 200 ppm [1]: 0%; pest or weed control at 200 ppm (Piricularia oryzae; Pyricularia oryzae): 0%; pest or weed control at 200 ppm (Phytophthora infestans; [4]): 100%; pest or weed control at 200 ppm [2]: 0%; pest or weed control at 200 ppm [3]: 0%
16 | CCCCCCCCNC(=O)/C=C\SC(=O)CCl [Compound 31, N-octyl-cis-3-(chloroacetylthio)acrylamide] | 0 | 0 | 80 | 0 | > 250 | 0 | –
17 | CCCCCCCCNC(=O)/C=C\SC(=O)c1cc(Cl)cc(Cl)c1 [Compound 54, N-octyl-cis-3-[(3,5-dichlorobenzoyl)thio]acrylamide] | 0 | – | 85 | 0 | > 250 | 0 | –
18 | CCCCCCCCNC(=O)/C=C\SC(=O)c1ccoc1 [Compound 62, N-octyl-cis-3-(3-furoylthio)acrylamide] | 0 | – | – | – | > 250 | – | pest or weed control at 200 ppm (Piricularia oryzae; Pyricularia oryzae): 0%; pest or weed control at 200 ppm (Phytophthora infestans; read-out: % Control TLB): 90%; pest or weed control at 12 ppm [2]: 50%; pest or weed control at 200 ppm [3]: 0%
19 | CCCCCCCCNC(=O)/C=C\SC(=O)CC(=O)OCC [Compound 2, N-octyl-cis-3-(ethylmalonylthio)acrylamide] | 0 | – | 90 | 0 | > 250 | 0 | pest or weed control at 6 ppm (Piricularia oryzae; Pyricularia oryzae, read-out: % Control RB, application rate 6 ppm): 50%
20 | CCCCCCCCNC(=O)/C=C\SC(C)C(=O)OC (stereo not drawn) [Compound 38] | 0 | – | – | 0 | – | 0 | pest or weed control at 25 ppm (Piricularia oryzae; [6]): 80%; pest or weed control at 6 ppm (Phytophthora infestans; read-out: % Control TLB): 80%
21 | CCCCCCCCNC(=O)/C=C\SC(=O)c1ccccc1CCl [Compound 35, N-octyl-cis-3-[(2-(chloromethyl)benzoyl)thio]acrylamide] | 0 | 80 | – | 85 | – | 0 | pest or weed control at 100 ppm (Phytophthora infestans; [5]): 0%
